# Article PMC8621172, “Manipulating Estrogenic/Anti-Estrogenic Activity of Triphenylethylenes towards Development of Novel Anti-Neoplastic SERMs” (International Journal of Molecular Sciences, 2021)
# Tests used:
# human ERα = target: T1, human ERα (Homo sapiens, UniProt P03372); experiment: Yeast estrogen screen (YES) assay, antagonistic activity (β-galactosidase reporter); type: cell-based, yeast (Saccharomyces cerevisiae); details: compounds at 1 µM in presence of 0.5 nM/1 nM E2 (E2 set as 1); triplicates
# T1 construct: host or cells: Saccharomyces cerevisiae
# T1 sequence (P03372 1-595): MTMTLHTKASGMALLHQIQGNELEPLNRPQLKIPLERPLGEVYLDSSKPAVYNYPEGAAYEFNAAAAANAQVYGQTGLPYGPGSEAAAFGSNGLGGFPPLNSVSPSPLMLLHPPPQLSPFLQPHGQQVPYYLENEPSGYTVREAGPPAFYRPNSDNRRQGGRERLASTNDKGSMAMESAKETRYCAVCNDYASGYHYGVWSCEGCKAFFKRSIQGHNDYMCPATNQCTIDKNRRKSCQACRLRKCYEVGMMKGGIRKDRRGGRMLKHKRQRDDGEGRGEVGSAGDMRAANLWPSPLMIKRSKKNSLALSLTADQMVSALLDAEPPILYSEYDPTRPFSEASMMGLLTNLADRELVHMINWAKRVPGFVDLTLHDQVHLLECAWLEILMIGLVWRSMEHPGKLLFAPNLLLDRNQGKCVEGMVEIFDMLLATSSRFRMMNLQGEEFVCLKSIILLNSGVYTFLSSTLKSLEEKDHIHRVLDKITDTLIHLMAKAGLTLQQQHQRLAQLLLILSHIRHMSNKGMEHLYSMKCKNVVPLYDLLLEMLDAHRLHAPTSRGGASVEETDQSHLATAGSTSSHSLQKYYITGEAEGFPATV
# Protocol: All synthesized compounds were tested for their relative activity in β-galactosidase in a yeast estrogen screen (YES) assay. Compounds were tested for their relative estrogenic/anti-estrogenic activities in comparison to positive and negative controls, respectively. YES assay is a gene reporter assay where the DNA sequence of human ERα is integrated into the yeast genome completed with an expression plasmid carrying estrogen response elements (ERE) in the promoter controlling the expression of the reporter gene lacZ (encoding the enzyme β-galactosidase). In the presence of estrogenic compounds, β-galactosidase is synthesized and secreted into the medium, where it converts the chromogenic substrate chlorophenol red-β-D-galactopyranoside (CRPG) from a yellow to a red product, whose absorbance is measured. […] Therefore, we decided to test the novel compounds in an organ-specific in vitro model using the human Ishikawa endometrial adenocarcinoma cell line.
# The yeast estrogen receptor assay was supplied by Dr. J.P. Sumpter (Brunel University, Uxbridge, UK) and was used to determine the relative transactivation activity of the human ERα as formerly described. Briefly, Saccharomyces cerevisiae stably transfected with a human ERα and an estrogen-responsive element fused to the reporter gene lacZ encoding for β-galactosidase were treated with the test substances for about 48 h. The β-galactosidase enzymatic activity was measured in a colorimetric assay using a microplate photometer by hydrolysis of the substrate chlorophenol red β-D-galactopyranoside (Roche Diagnostics, Mannheim, Germany), which leads to the formation of chlorophenol red. This can be measured as an increased absorption at 540 nm. All compounds were diluted in DMSO. […] All compounds were tested in technical quadruplicates and biological triplicates. Statistical analysis was performed by analysis of variance (ANOVA) and Tukey’s post-hoc test with the significance level of p < 0.05.
# Hs578T = experiment: NCI five-dose assay, TNBC cell line Hs578T; type: cell-based, human
# Protocol: All compounds were subjected to the NCI in vitro disease-oriented human cells screening panel assay. The human tumor cell lines of the cancer-screening panel are grown in RPMI 1640 medium containing 5% fetal bovine serum and 2 mM L-glutamine. For a typical screening experiment, cells are inoculated into 96-well microtiter plates in 100 μL at plating densities ranging from 5000 to 40,000 cells/well depending on the doubling time of individual cell lines. After cell inoculation, the microtiter plates are incubated at 37 °C, 5% CO2, 95% air, and 100% relative humidity for 24 h prior to the addition of experimental drugs. After 24 h, two plates of each cell line are fixed in situ with TCA to represent a measurement of the cell population for each cell line at the time of drug addition. Experimental drugs are solubilized in dimethyl sulfoxide at 400-fold the desired final maximum test concentration and stored frozen prior to use. At the time of drug addition, an aliquot of frozen concentrate is thawed and diluted to twice the desired final maximum test concentration with complete medium containing 50 μg/mL gentamicin. Additional four, 10-fold, or ½ log serial dilutions are made to provide a total of five drug concentrations plus control. Aliquots of 100 μL of these different drug dilutions are added to the appropriate microtiter wells already containing 100 μL of medium, resulting in the required final drug concentrations. Following drug addition, the plates are incubated for an additional 48 h at 37 °C, 5% CO2, 95% air, and 100% relative humidity. For adherent cells, the assay is terminated by the addition of cold TCA. Cells are fixed in situ by the gentle addition of 50 μL of cold 50% (w/v) TCA (final concentration, 10% TCA) and incubated for 60 min at 4 °C. […] Bound stain is subsequently solubilized with a 10 mM trizma base, and the absorbance is read on an automated plate reader at a wavelength of 515 nm. […] Three response parameters (GI50, TGI, and LC50) were calculated for each cell line.
Compound,Anti-Estrogenic Activity (relative β-galactosidase activity) (human ERα),anti-proliferative activity compared to TAM (Hs578T)
"CC(=C(c1ccc(Cl)cc1)c1ccc(OCCCN(C)C)cc1)c1ccccc1 [Compound 5, E/Z-(3-{4-[1-(4-Chloro-phenyl)-2-phenyl-propenyl]-phenoxy}-propyl)-dimethyl-amine]",1.34 ± 0.15,–
"CC(=C(c1ccc(Cl)cc1)c1ccc(OCCN2CCCC2)cc1)c1ccccc1 [Compound 6, E/Z-1-(2-{4-[1-(4-Chloro-phenyl)-2-phenyl-propenyl]-phenoxy}-ethyl)-pyrrolidine]",1.20 ± 0.19,–
"CC(=C(c1ccc(Cl)cc1)c1ccc(OCCN2CCCCC2)cc1)c1ccccc1 [Compound 7, E/Z-1-(2-{4-[1-(4-Chloro-phenyl)-2-phenyl-propenyl]-phenoxy}-ethyl)-piperidine]",1.35 ± 0.16,–
"CC(=C(c1ccc(Cl)cc1)c1ccc(OCCN2CCOCC2)cc1)c1ccccc1 [Compound 8, E/Z-4-(2-{4-[1-(4-Chloro-phenyl)-2-phenyl-propenyl]-phenoxy}-ethyl)-morpholine]",1.11 ± 0.26,–
"CC(=C(c1ccc(Cl)cc1)c1ccc(OCCN2CCCCCC2)cc1)c1ccccc1 [Compound 9, E/Z-1-(2-{4-[1-(4-Chloro-phenyl)-2-phenyl-propenyl]-phenoxy}-ethyl)-azepane]",1.99 ± 0.02,–
"COc1ccc(C(C)=C(c2ccc(Cl)cc2)c2ccc(OCCCN(C)C)cc2)cc1 [Compound 10, E/Z-(3-{4-[1-(4-Chloro-phenyl)-2-(4-methoxy-phenyl)-propenyl]-phenoxy}-propyl)-dimethyl-amine]",3.92 ± 0.58,–
"COc1ccc(C(C)=C(c2ccc(Cl)cc2)c2ccc(OCCN3CCCC3)cc2)cc1 [Compound 11, E/Z-1-(2-{4-[1-(4-Chloro-phenyl)-2-(4-methoxy-phenyl)-propenyl]-phenoxy}-ethyl)-pyrrolidine]",1.55 ± 0.12,–
"COc1ccc(C(C)=C(c2ccc(Cl)cc2)c2ccc(OCCN3CCCCC3)cc2)cc1 [Compound 12, E/Z-1-(2-{4-[1-(4-Chloro-phenyl)-2-(4-methoxy-phenyl)-propenyl]-phenoxy}-ethyl)-piperidine]",2.55 ± 0.41,–
"COc1ccc(C(C)=C(c2ccc(Cl)cc2)c2ccc(OCCN3CCCCCC3)cc2)cc1 [Compound 14, E/Z-1-(2-{4-[1-(4-Chloro-phenyl)-2-(4-methoxy-phenyl)-propenyl]-phenoxy}-ethyl)-azepane]",1.53 ± 0.09,–
"COc1ccc(C(C)=C(c2ccc(Cl)cc2)c2ccc(OCCN3CCCCC3)cc2)cc1F [Compound 17, E/Z-1-(2-{4-[1-(4-Chlorophenyl)-2-(3-fluoro-4-methoxyphenyl)-propenyl]-phenoxy}-ethyl)-piperidine]",–,more potent than TAM
"COc1ccc(C(C)=C(c2ccc(Cl)cc2)c2ccc(OCCN3CCCCCC3)cc2)cc1F [Compound 19, E/Z-1-(2-{4-[1-(4-Chlorophenyl)-2-(3-fluoro-4-methoxyphenyl)-propenyl]-phenoxy}-ethyl)-azepane]",–,more potent than TAM
"COc1cc(C(C)=C(c2ccc(Cl)cc2)c2ccc(OCCCN(C)C)cc2)ccc1F [Compound 22, E/Z-(3-{4-[1-(4-Chlorophenyl)-2-(4-fluoro-3-methoxyphenyl)-propenyl]-phenoxy}-propyl)-dimethyl-amine]",0.97 ± 0.03,–
"COc1cc(C(C)=C(c2ccc(Cl)cc2)c2ccc(OCCN3CCCC3)cc2)ccc1F [Compound 23, E/Z-1-(2-{4-[1-(4-Chlorophenyl)-2-(4-fluoro-3-methoxyphenyl)-propenyl]-phenoxy}-ethyl)-pyrrolidine]",1.06 ± 0.05,–
"COc1cc(C(C)=C(c2ccc(Cl)cc2)c2ccc(OCCN3CCCCC3)cc2)ccc1F [Compound 24, E/Z-1-(2-{4-[1-(4-Chlorophenyl)-2-(4-fluoro-3-methoxyphenyl)-propenyl]-phenoxy}-ethyl)-piperidine]",1.19 ± 0.10,–
"COc1cc(C(C)=C(c2ccc(Cl)cc2)c2ccc(OCCN3CCOCC3)cc2)ccc1F [Compound 25, E/Z-4-(2-{4-[1-(4-Chlorophenyl)-2-(4-fluoro-3-methoxyphenyl)-propenyl]-phenoxy}-ethyl)-morpholine]",1.18 ± 0.03,–
"COc1cc(C(C)=C(c2ccc(Cl)cc2)c2ccc(OCCN3CCCCCC3)cc2)ccc1F [Compound 26, E/Z-1-(2-{4-[1-(4-Chlorophenyl)-2-(4-fluoro-3-methoxyphenyl)-propenyl]-phenoxy}-ethyl)-azepane]",1.05 ± 0.12,–
"COc1cc(C(C)=C(c2ccc(Cl)cc2)c2ccc(OCCN(C)C)cc2)ccc1F [Compound 27, E/Z-(2-{4-[1-(4-Chlorophenyl)-2-(4-fluoro-3-methoxyphenyl)-propenyl]-phenoxy}-ethyl)-dimethyl-amine]",0.86 ± 0.04,–
"CCN(CC)CCOc1ccc(C(=C(C)c2ccc(F)c(OC)c2)c2ccc(Cl)cc2)cc1 [Compound 28, E/Z-(2-{4-[1-(4-Chlorophenyl)-2-(4-fluoro-3-methoxyphenyl)-propenyl]-phenoxy}-ethyl)-diethyl-amine]",0.86 ± 0.07,more potent than TAM
